{"source": "paper PMC4896453", "about": "(PLoS ONE, 2016)", "key": {"[1]": {"biological_target": "T1, human Mu receptor (Mu-RLuc/β-arrestin 2-RGFP) (Homo sapiens, UniProt P35372)", "T1 construct": "expressed in transfected cells; host or cells: SH-SY5Y (retroviral expression; whole cells)", "T1 sequence (P35372+P27652 fused)": "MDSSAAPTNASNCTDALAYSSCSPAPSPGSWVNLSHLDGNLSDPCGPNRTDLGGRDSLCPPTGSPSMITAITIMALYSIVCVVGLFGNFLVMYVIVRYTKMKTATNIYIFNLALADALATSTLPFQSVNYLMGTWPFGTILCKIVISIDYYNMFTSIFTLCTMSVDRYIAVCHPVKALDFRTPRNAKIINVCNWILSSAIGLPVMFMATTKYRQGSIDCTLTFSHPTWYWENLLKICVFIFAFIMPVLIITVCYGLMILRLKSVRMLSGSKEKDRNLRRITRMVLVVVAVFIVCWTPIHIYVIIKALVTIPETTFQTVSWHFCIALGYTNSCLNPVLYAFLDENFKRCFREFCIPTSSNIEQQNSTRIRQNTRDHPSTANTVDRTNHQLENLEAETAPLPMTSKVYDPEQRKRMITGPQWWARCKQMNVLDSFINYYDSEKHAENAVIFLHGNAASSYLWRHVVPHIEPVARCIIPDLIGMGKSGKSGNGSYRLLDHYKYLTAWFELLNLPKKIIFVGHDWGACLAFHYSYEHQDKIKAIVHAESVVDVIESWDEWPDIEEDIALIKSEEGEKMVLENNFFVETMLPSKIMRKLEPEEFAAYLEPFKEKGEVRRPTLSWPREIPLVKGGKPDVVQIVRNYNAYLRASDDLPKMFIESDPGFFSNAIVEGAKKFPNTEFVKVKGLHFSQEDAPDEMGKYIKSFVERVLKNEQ", "T1 sequence (P32121 whole entry partner)": "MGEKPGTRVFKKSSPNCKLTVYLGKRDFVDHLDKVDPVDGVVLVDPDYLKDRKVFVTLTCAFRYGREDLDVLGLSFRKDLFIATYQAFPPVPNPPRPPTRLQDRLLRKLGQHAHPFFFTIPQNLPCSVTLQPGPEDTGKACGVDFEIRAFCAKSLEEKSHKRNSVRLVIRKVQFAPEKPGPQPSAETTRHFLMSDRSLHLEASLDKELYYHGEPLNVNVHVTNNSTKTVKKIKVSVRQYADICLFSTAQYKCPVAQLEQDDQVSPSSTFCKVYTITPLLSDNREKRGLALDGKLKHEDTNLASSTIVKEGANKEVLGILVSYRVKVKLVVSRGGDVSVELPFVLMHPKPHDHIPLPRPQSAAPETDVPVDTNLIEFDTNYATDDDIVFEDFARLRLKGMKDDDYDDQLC", "test": "BRET Mu-RLuc/β-arrestin 2-RGFP interaction, SH-SY5Y cells", "type": "cell-based", "conditions": "BRET, SH-SY5Y cells, room temperature; at least 4 experiments in duplicate"}, "human Mu receptor": {"biological_target": "T2, human Mu receptor (Homo sapiens, UniProt P35372)", "T2 construct": "expressed in transfected cells; host or cells: CHO", "T2 sequence (P35372 whole entry)": "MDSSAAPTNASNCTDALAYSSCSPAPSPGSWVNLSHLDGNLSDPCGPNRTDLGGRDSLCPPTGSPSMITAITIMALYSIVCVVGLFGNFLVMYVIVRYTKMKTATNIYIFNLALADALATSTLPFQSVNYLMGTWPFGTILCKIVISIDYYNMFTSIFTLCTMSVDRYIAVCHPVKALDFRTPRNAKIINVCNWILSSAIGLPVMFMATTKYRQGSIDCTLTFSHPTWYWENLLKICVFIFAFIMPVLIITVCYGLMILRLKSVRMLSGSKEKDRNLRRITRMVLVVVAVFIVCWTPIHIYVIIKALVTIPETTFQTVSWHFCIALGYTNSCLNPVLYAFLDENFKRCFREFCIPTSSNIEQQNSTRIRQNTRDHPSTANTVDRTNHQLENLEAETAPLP", "test": "Calcium mobilisation, CHO cells with Mu and Gαqi5", "type": "cell-based", "conditions": "calcium mobilisation, at least 3 experiments in duplicate"}, "[2]": {"tested_on": "electrically stimulated guinea pig ileum", "test": "Electrically stimulated guinea pig ileum bioassay", "conditions": "for Kb: Cavia porcellus", "method": "With approval of Animal Subjects Review Board of the University of Ferrara and from the Italian Ministry of Health (PROT-186) ileum tissues were taken from male albino guinea pigs of 350–400 g (Pampaloni, Pisa, Italy). The animals were treated in accordance with European guidelines (86/609/ECC) and national regulations (DL 116/92). They were housed in 560 x 320 x 180 mm cages (Techinplast), three per cage, under standard conditions (22°C, 55% humidity, 12 h light/dark cycle, light on at 7:00 h) with food (complete feed for guinea pig, Mucedola, Milano, Italy) and water ad libitum. The day of the experiment the animals were killed with an isofluorane overdose. Bioassay experiments were performed as previously described. The tissues were suspended in 5 ml organ baths containing Krebs solution (composition in mM: NaCl 118.5, KCl 4.7, MgSO4 1.2, KH2PO4 1.2, NaHCO3 25, CaCl2 1.8, glucose 10), hexamethonium bromide 22 μM, benadril 0.34 μM and oxygenated with 95% O2 and 5% CO2. The temperature was set at 37°C. At resting tension, 1 g was applied to the tissues. Tissues were stimulated through two platinum electrodes with a supramaximal rectangular pulse of 1 ms duration, 0.05 Hz frequency, 80V amplitude. Electrically evoked contractions were measured isotonically by means of Basile strain gauge transducers (Basile 7006; srl Ugo Basile, Varese, Italy) and recorded with a computer–based acquisition system (Power Lab 8, ADInstruments, USA). After an equilibration period of about 60 min, the contractions induced by electrical field stimulation were stable. At this time, cumulative concentration response curves to agonists were constructed (0.5 log unit steps). Antagonists were injected into the baths 15 minutes before constructing agonist concentration response curves.\nData are expressed as mean±SEM or with confidence intervals as appropriate. For more than 2 groups, data are analysed using ANOVA with post-hoc testing using Dunnett’s or Bonferroni’s test as appropriate. Where there are only 2 groups paired or unpaired t-tests were used. P values of less than 0.05 were considered significant. All curve fitting was accomplished using Graphpad-Prism (V6). […] In gpI experiments the antagonist potency (pKb) is calculated from the rightward shift of the agonist concentration response curve by a fixed antagonist concentration."}, "[3]": {"biological_target": "human NOP receptor (NOP-RLuc/Gβ1-RGFP) (Homo sapiens, UniProt P41146)", "sequence (P41146 whole entry, looked up)": "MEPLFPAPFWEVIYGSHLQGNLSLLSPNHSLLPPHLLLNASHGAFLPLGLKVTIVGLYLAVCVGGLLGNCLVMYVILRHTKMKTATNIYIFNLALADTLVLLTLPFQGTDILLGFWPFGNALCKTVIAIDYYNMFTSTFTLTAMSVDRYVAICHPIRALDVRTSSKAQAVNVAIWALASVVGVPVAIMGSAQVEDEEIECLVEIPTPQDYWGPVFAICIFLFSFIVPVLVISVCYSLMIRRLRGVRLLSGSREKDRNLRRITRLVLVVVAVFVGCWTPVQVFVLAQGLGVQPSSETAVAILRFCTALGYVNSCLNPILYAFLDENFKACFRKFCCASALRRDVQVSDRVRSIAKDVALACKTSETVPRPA", "test": "biochemical", "type": "biochemical"}, "[4]": {"biological_target": "T3, human NOP receptor (NOP-RLuc/β-arrestin 2-RGFP) (Homo sapiens, UniProt P41146)", "T3 construct": "expressed in transfected cells; host or cells: HEK-293 (retroviral expression; whole cells)", "T3 sequence (P41146+P27652 fused)": "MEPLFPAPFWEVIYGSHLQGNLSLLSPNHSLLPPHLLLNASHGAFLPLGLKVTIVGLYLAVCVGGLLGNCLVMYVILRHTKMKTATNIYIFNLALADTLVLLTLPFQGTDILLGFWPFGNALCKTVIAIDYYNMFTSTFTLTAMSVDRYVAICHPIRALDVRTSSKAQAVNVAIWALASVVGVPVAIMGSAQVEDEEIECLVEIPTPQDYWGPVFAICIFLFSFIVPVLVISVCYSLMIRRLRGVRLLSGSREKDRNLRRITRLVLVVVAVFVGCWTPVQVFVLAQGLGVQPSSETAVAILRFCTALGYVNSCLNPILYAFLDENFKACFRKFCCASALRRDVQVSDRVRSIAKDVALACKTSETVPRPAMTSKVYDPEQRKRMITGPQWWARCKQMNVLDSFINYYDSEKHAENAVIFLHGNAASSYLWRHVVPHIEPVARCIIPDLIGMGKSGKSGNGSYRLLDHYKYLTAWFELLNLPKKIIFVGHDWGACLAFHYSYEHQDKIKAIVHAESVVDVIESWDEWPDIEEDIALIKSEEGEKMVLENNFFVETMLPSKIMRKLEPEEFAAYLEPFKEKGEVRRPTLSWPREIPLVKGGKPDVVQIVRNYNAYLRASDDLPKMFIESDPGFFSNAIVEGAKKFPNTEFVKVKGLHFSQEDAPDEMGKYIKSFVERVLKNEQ", "T3 sequence (P32121 whole entry partner)": "as the sequence (P32121 whole entry partner) above", "test": "BRET NOP-RLuc/β-arrestin 2-RGFP interaction, HEK-293 cells", "type": "cell-based", "conditions": "BRET, HEK-293 cells, room temperature; at least 4 experiments in duplicate"}, "human NOP receptor": {"biological_target": "T4, human NOP receptor (Homo sapiens, UniProt P41146)", "T4 construct": "expressed in transfected cells; host or cells: CHO", "T4 sequence (P41146 whole entry)": "as the sequence (P41146 whole entry, looked up) above", "test": "Calcium mobilisation, CHO cells with NOP and Gαqi5", "type": "cell-based", "conditions": "calcium mobilisation, CHO cells with human NOP and Gαqi5, Fluo-4 AM, 37°C; at least 3 experiments in duplicate"}, "rats": {"tested_on": "rats", "test": "Rota-rod test after intrathecal infusion", "type": "in vivo, rat", "conditions": "same range of doses (0.1–1 nmol), data not shown", "method": "For all the experiments described below, male Sprague-Dawley rats (Harlan, Varese, Italy), weighing approximately 280-300g at the beginning of the experimental procedure, were used. Animals were housed in CeSAL (Centro Stabulazione Animali da Laboratorio, University of Florence) and used at least one week after their arrival. One rat was housed per cage (size 26x41 cm); animals were fed with standard laboratory diet and tap water ad libitum, and kept at 23±1°C with a 12 h light/dark cycle, light at 7 a.m. […] All animals were monitored daily using a scoring system (based on: Appearance, Food and Water Intake, Clinical Signs, Natural Behaviour and Provoked Behaviour. Maximum score is 20 and animals reaching 10 are euthanized. In the experiments reported here no animals reached this score and none died before the end of the experiment) and at the end of the experiment were euthanized by CO2 overdose. […]\nRota-rod apparatus (Ugo Basile, Varese, Italy) consisted of a base platform and a rotating rod with a diameter of 6 cm and a non-slippery surface. […] The integrity of motor coordination was assessed on the basis of the number of falls from the rod in 60s measured 15, 30, 45, 60, 90, 120 and 180 min after treatments."}, "[5]": {"biological_target": "T5, Mu receptor (CHOhMu cells) (Homo sapiens, UniProt P35372)", "T5 construct": "expressed in transfected cells; host or cells: CHO (Chinese Hamster Ovary)", "T5 sequence (P35372 whole entry)": "as the sequence (P35372 whole entry) above", "test": "cAMP assay, forskolin-stimulated CHOhMu whole cells", "type": "cell-based", "conditions": "forskolin 1μM, mean (±SEM)", "method": "(§1) CHOhMu and CHOhNOP whole cells were suspended in Krebs/HEPES buffer, containing isobutylmethylxanthine (1mM) and forskolin (1μM)."}, "[6]": {"biological_target": "T6, NOP receptor (CHOhNOP cells) (Homo sapiens, UniProt P41146)", "T6 construct": "expressed in transfected cells; host or cells: CHO (Chinese Hamster Ovary)", "T6 sequence (P41146 whole entry)": "as the sequence (P41146 whole entry, looked up) above", "test": "cAMP assay, forskolin-stimulated CHOhNOP whole cells", "type": "cell-based", "conditions": "forskolin 1μM, mean (±SEM)", "method": "as §1"}, "rat": {"tested_on": "rat", "conditions": "in vivo; cited from earlier work"}, "monkey": {"tested_on": "monkey", "conditions": "monkey tail withdraw assay; cited from earlier work"}, "[7]": {"conditions": "antagonist 15 minutes before agonist curve, from rightward shift, read-out: antagonist potency pKb against DeNo (converted)"}}, "note": "Entries after “also recorded” stand apart in the source; their conditions may differ. Where two headings read alike, the source gives them in different places."}
{"molecule": "CC(C)C[C@H](NC(=O)[C@H](CCCCN)NC(=O)[C@H](CCCNC(=N)N)NC(=O)[C@H](C)NC(=O)[C@H](CO)NC(=O)[C@H](CCCCN)NC(=O)[C@H](CCCNC(=N)N)NC(=O)[C@H](C)NC(=O)CNC(=O)[C@@H](NC(=O)[C@H](Cc1ccccc1)NC(=O)CNC(=O)CNC(=O)[C@@H](N)Cc1ccccc1)[C@@H](C)O)C(=O)N[C@@H](C)C(=O)N[C@@H](CC(N)=O)C(=O)N[C@@H](CCC(N)=O)C(=O)O", "note": "[N/OFQ, nociceptin/orphanin FQ]", "values": [{"measurement": "β-arrestin 2 Mu pEC50 (CL95%)", "setting": "[1]", "value": "inactive"}, {"measurement": "Mu Emax ± SEM", "setting": "human Mu receptor; % over basal fluorescence, CHO cells with human Mu and Gαqi5", "value": "Inactive"}, {"measurement": "Mu pEC50 (CL95%)", "setting": "human Mu receptor; CHO cells with human Mu and Gαqi5, Fluo-4 AM, 37°C", "value": "Inactive"}]}
{"molecule": "Cc1cccc2c1CC[C@H](CN1CCC(c3c(Cl)cccc3Cl)CC1)C[C@@H]2O", "note": "[SB-612111]", "values": [{"measurement": "Kb", "setting": "[2]; antagonist 100 nM, 15 minutes before agonist curve, from rightward shift, read-out: antagonist potency pKb against N/OFQ (converted)", "value": 0.00437, "unit": "µM"}, {"measurement": "Kb", "setting": "[2]; [7]", "value": 0.0851, "unit": "µM"}]}
{"molecule": "C[C@@H](NC(=O)[C@@H](N)Cc1ccc(O)cc1)C(=O)N[C@@H](Cc1ccccc1)C(=O)NCC(=O)N[C@@H](Cc1ccc(O)cc1)C(=O)N1CCC[C@H]1C(=O)N[C@@H](CO)C(N)=O", "note": "[dermorphin]", "values": [{"measurement": "Gβ1-protein NOP pEC50(CL95%)", "setting": "[3]", "value": "very weak only increasing BRET ratio at micromolar concentrations; also recorded: crc incomplete"}, {"measurement": "β-arrestin 2 NOP pEC50 (CL95%)", "setting": "[4]", "value": "completely inactive"}, {"measurement": "Emax", "setting": "human Mu receptor; % over basal fluorescence, CHO cells with human Mu and Gαqi5, SEM", "value": "234 ± 14", "unit": "%"}, {"measurement": "NOP pEC50 (CL95%)", "setting": "human NOP receptor", "value": "crc incomplete"}, {"measurement": "animal performance in the rotarod test", "setting": "rats", "value": "impaired animal performance in the rotarod test"}]}
{"molecule": "C=C[C@@]1(C)CC(=O)[C@]2(O)[C@@]3(C)[C@@H](O)CCC(C)(C)[C@@H]3[C@H](O)[C@H](OC(C)=O)[C@@]2(C)O1", "note": "[forskolin]", "values": [{"measurement": "increase in cAMP production compared to basal, CHOhMu", "setting": "[5]", "value": "24.3 (±1.79) fold"}, {"measurement": "increase in cAMP production compared to basal, CHOhNOP", "setting": "[6]", "value": "21.23 (±3.86) fold"}]}
{"molecule": "CN1CC[C@]23c4c5ccc(O)c4O[C@H]2[C@@H](O)C=C[C@H]3[C@H]1C5", "note": "[morphine]", "values": [{"measurement": "time to tolerance", "setting": "rat", "value": 11, "unit": "days"}]}
{"molecule": "C=CCN1CC[C@]23c4c5ccc(O)c4O[C@H]2C(=O)CC[C@@]3(O)[C@H]1C5", "note": "[naloxone, Naloxone]", "values": [{"measurement": "Kb", "setting": "[2]; [7]", "value": 0.0288, "unit": "µM"}, {"measurement": "Kb", "setting": "[2]; read-out: antagonist potency pKb against dermorphin (converted), antagonist 15 minutes before agonist curve, from rightward shift", "value": 0.00269, "unit": "µM"}, {"measurement": "antagonist potency pKb against N/OFQ", "setting": "[2]; antagonist 100 nM, 15 minutes before agonist curve, from rightward shift", "value": "does not affect the inhibitory action of N/OFQ"}]}
{"molecule": "[Dmt^1]N/OFQ(1–13)-NH2", "values": [{"measurement": "increase in potency over N/OFQ", "setting": "monkey", "value": 30, "unit": "fold"}]}
